Test [1] deals with T1, Fatty-acid amide hydrolase 1 (Homo sapiens, UniProt O00519).
T1 sequence (O00519 whole entry): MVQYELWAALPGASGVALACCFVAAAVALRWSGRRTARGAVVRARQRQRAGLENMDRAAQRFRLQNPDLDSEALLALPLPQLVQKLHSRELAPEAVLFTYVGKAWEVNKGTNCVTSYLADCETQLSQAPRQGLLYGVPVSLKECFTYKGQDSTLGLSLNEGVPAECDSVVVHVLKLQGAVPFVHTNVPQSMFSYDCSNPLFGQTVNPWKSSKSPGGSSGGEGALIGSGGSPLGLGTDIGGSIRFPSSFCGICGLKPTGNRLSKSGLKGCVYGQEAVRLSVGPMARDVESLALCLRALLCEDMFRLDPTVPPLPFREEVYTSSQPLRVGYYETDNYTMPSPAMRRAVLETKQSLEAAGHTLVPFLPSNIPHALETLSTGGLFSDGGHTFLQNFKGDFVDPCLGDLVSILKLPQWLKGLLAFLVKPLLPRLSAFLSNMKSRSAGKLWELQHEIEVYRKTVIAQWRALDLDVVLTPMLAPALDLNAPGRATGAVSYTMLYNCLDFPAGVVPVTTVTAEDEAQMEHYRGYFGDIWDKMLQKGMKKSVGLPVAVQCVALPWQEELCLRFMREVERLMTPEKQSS
Kind of test: Inhibition of Homo sapiens (human) recombinant fatty acid amide hydrolase assessed as inhibition of [3H]-AEA hydrolysis after 10 min by liquid scintillation counting.

The next test has as its target T2, Monoglyceride lipase (Homo sapiens, UniProt Q99685).
T2 sequence (Q99685 whole entry): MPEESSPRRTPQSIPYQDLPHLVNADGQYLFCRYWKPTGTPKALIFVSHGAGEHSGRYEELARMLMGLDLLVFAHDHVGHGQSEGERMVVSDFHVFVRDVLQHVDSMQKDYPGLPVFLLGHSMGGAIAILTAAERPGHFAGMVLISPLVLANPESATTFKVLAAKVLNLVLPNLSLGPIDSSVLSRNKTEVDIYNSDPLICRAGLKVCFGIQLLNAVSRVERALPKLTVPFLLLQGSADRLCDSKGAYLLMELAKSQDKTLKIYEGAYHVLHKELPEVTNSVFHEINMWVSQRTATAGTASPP
Kind of test: Inhibition of Homo sapiens (human) recombinant monoacylglycerol lipase assessed as inhibition of [3H]-2-oleolylglycerol hydrolysis after 10 min by liquid scintillation counting.

Some results are limits rather than exact numbers.

One may read the IC50 as the point on the concentration scale where inhibition reaches its midpoint.

In the case of `S=C(c1ccc(Cl)c(Cl)c1)N1CCOCC1` [(3,4-DICHLOROPHENYL)(MORPHOLINO)METHANETHIONE], the IC50 (in test [1]; at Monoglyceride lipase) was greater than 1000 µM throughout.
As for `Fc1ccc(C(=S)NCCc2ccccc2)cc1`, the half-inhibitory concentration (IC50) (in test [1]; on Monoglyceride lipase) was greater than 1000 µM each time.
Consider `S=C(NCCc1ccccc1)c1ccc(Cl)cc1Cl`, for which the IC50 is greater than 1000 µM in test [1] and 79.4 µM at Monoglyceride lipase.
For `O=C(c1ccccc1Cl)N1CCOCC1` [(2-CHLOROPHENYL)(MORPHOLINO)METHANONE] the same measures were greater than 1000 µM and greater than 1000 µM.
For `S=C(c1ccccc1Cl)N1CCOCC1` the same measures were greater than 1000 µM and 20 µM.
The corresponding values for `COC(=O)c1ccc(C(=S)NCCc2ccccc2)cc1` are greater than 1000 µM and 26.3 µM.
`O=C(c1ccc(Cl)cc1)N1CCOCC1` [(4-CHLOROPHENYL)(MORPHOLINO)METHANONE]: the 50% inhibitory concentration (IC50) (in test [1]; at Monoglyceride lipase) was greater than 1000 µM throughout.
In the case of `S=C(c1ccc(C2CCCCC2)cc1)N1CCOCC1`, the IC50 (in test [1]; on Monoglyceride lipase) was greater than 1000 µM each time.
Consider `COC(=O)c1ccc(C(=S)N2CCOCC2)cc1`, for which the half-inhibitory concentration (IC50) in test [1] is greater than 1000 µM; at Monoglyceride lipase, 30.9 µM.
For `S=C(c1ccc(Cl)cc1Cl)N1CCOCC1` [(2,4-DICHLOROPHENYL)(MORPHOLINO)METHANETHIONE] the same measures were greater than 1000 µM and greater than 1000 µM.
For `S=C(Cc1ccc(-c2ccccc2)cc1)NCCc1ccccc1` the same measures were 724 µM and 537 µM.
`S=C(NCCc1ccccc1)c1ccc(Br)cc1`: the concentration for half-maximal inhibition (IC50) in test [1] was greater than 1000 µM; on Monoglyceride lipase, 97.7 µM.
For `Cc1ccc(CC(=S)N2CCOCC2)cc1` the same measures were 49 µM and 24 µM.
For `COc1ccc(CC(=S)N2CCOCC2)cc1OC` the same measures were greater than 1000 µM and greater than 1000 µM.
In the case of `O=[N+]([O-])c1cccc(C(=S)N2CCOCC2)c1`, the 50% inhibitory concentration (IC50) in test [1] is 245 µM; on Monoglyceride lipase, 9.55 µM.
Regarding `S=C(c1ccc(Br)cc1)N1CCOCC1` [(4-BROMOPHENYL)(MORPHOLINO)METHANETHIONE], the 50% inhibitory concentration (IC50) in test [1] is greater than 1000 µM; at Monoglyceride lipase, 31.6 µM.
In the case of `CN(C)c1ccc(C(=S)N2CCOCC2)cc1` [(4-(DIMETHYLAMINO)PHENYL)(MORPHOLINO)METHANETHIONE], the half-maximal inhibitory concentration (IC50) (in test [1]; at Monoglyceride lipase) was greater than 1000 µM throughout.
For the compound `S=C(NCCc1ccccc1)c1ccc(Cl)cc1`, the values for the IC50 (in test [1]; on Monoglyceride lipase) were 407 µM and 437 µM, respectively.
The corresponding values for `S=C(c1ccccc1)N1CCCCC1` are greater than 1000 µM and greater than 1000 µM.
The corresponding values for `S=C(c1ccc(Cl)cc1)N1CCOCC1` [(4-CHLOROPHENYL)(MORPHOLINO)METHANETHIONE] are 302 µM and 77.6 µM.
As for `O=C(c1ccc(-c2ccccc2)cc1)N1CCOCC1`, the IC50 (in test [1]; at Monoglyceride lipase) was greater than 1000 µM in each case.
`c1ccc(-c2ccc(CN3CCOCC3)cc2)cc1` [4-(BIPHENYL-4-YLMETHYL)MORPHOLINE]: the IC50 (in test [1]; on Monoglyceride lipase) was greater than 1000 µM each time.
Take `S=C(NCCc1ccccc1)c1ccccc1` [N-PHENETHYLBENZOTHIOAMIDE]: the IC50 (in test [1]; on Monoglyceride lipase) was greater than 1000 µM each time.
For `S=C(Cc1ccccc1)N1CCOCC1`, the IC50 (in test [1]; at Monoglyceride lipase) was greater than 1000 µM throughout.
Take `S=C(NCCc1ccccc1)c1ccc(Cl)c(Cl)c1`: the figures for the IC50 (in test [1]; at Monoglyceride lipase) were 53.7 µM and 75.9 µM, respectively.
The corresponding values for `S=C(Cc1ccc(-c2ccccc2)cc1)N1CCOCC1` are 30.9 µM and 5.75 µM.
The corresponding values for `Oc1ccc(C(=S)N2CCOCC2)cc1` [(4-HYDROXYPHENYL)(MORPHOLINO)METHANETHIONE] are 562 µM and 204 µM.
In the case of `Clc1ccc(CN2CCOCC2)cc1` [4-(4-CHLOROBENZYL)MORPHOLINE], the concentration for half-maximal inhibition (IC50) (in test [1]; at Monoglyceride lipase) was greater than 1000 µM throughout.
Consider `S=C(c1ccccc1)N1CCOCC1` [MORPHOLINO(PHENYL)METHANETHIONE], for which the IC50 (in test [1]; at Monoglyceride lipase) was greater than 1000 µM throughout.
Turning to `Oc1ccccc1C(=S)N1CCOCC1` [(2-HYDROXYPHENYL)(MORPHOLINO)METHANETHIONE], the IC50 was greater than 1000 µM in test [1] and 60.3 µM on Monoglyceride lipase.
On to `S=C(NCCc1ccccc1)c1ccccc1Cl`, for which the IC50 is greater than 1000 µM in test [1] and 166 µM at Monoglyceride lipase.
For `Clc1ccccc1CN1CCOCC1` the same measures were greater than 1000 µM and greater than 1000 µM.
For `S=C(Cc1ccc(Cl)cc1)N1CCOCC1` the same measures were 77.6 µM and 14.8 µM.
For `S=C(c1cccc(Cl)c1)N1CCOCC1` [(3-CHLOROPHENYL)(MORPHOLINO)METHANETHIONE] the same measures were greater than 1000 µM and greater than 1000 µM.
As to `Oc1ccc(C(=S)NCCc2ccccc2)cc1O`, the results for the 50% inhibitory concentration (IC50) (in test [1]; on Monoglyceride lipase) were 724 µM and 525 µM, respectively.
Consider `Cc1cccc(C(=S)N2CCCCC2)c1`, for which the IC50 in test [1] was 61.7 µM; on Monoglyceride lipase it was greater than 1000 µM.
For the compound `S=C(c1ccc(-c2ccccc2)cc1)N1CCOCC1`, the values for the half-inhibitory concentration (IC50) (in test [1]; on Monoglyceride lipase) were 30.9 µM and 19.5 µM, respectively.
The corresponding values for `S=C(Cc1ccccc1Cl)N1CCOCC1` are greater than 1000 µM and 24.5 µM.

The values above are taken from ChEMBL document CHEMBL3045859, “Search for monoglyceride lipase inhibitors: synthesis and screening of arylthioamides derivatives” (Med Chem Res, 2009).
